Laboratory results reported in the supplement of paper PMC10307832.

What was measured:
[1] = compound: C1CSC2=C(C(=O)N1)SC3=C2C=C(C=C3)O [kb NB 142-70] + CC1(C)CCC(c2ccc(Cl)cc2)=C(CN2CCN(c3ccc(C(=O)NS(=O)(=O)c4ccc(N[C@H](CCN5CCOCC5)CSc5ccccc5)c(S(=O)(=O)C(F)(F)F)c4)cc3)CC2)C1 [Navitoclax] (partner 0.5 µM); experiment: relative viability (nuclei count vs DMSO), 5 days (fraction); higher = more cells survive
Procedure, shortened: (§1)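 Relative viability is defined as nuclei in treated wells over nuclei in vehicle wells. Duplicate plates were run and medians reported. Lung cancer cell lines in 1536-well plates were dosed by pin tool one day after seeding, with one drug or with a fixed anchor-drug dose plus five library-drug doses (not always all listed) in √10 steps, and nuclei were counted after 5 days.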

[2] = compound: NCC(=O)Nc1ccc(-n2nc(C(F)(F)F)cc2-c2ccc3c(ccc4ccccc43)c2)cc1 + COc1cc2c(Oc3ccc(NC(=O)C4(C(=O)Nc5ccc(F)cc5)CC4)cc3F)ccnc2cc1OCCCN1CCOCC1 [Foretinib] (partner 0.25 µM); experiment: as above
Procedure, shortened: as §1

Cell Line | relative viability ([1]; first compound 0.1 µM) | relative viability ([1]; first compound 1 µM) | relative viability ([1]; first compound 3.162 µM) | relative viability ([2]; first compound 0.02 µM) | relative viability ([2]; first compound 0.06325 µM) | relative viability ([2]; first compound 0.2 µM) | relative viability ([2]; first compound 0.6325 µM) | relative viability ([2]; first compound 2 µM)
SK-MES-1 | 1.21 | 1.27 | 0.658 | 0.955 | 0.896 | 0.995 | 0.959 | 1.06
HCC-366 | 1.03 | 1.13 | 0.823 | 0.918 | 0.911 | 0.984 | 0.924 | 0.992
201T | 1.22 | 1.26 | 1.17 | 1.12 | 1.2 | 1.17 | 1.1 | 1.15
HCC-827 | 1.04 | 1.02 | 1.02 | 1.1 | 1.09 | 0.98 | 0.991 | 1.08
NCI-H647 | 1.16 | 1.19 | 0.842 | 1.23 | 1.32 | 1.26 | 1.12 | 1.12
NCI-H2023 | 0.983 | 1 | 0.644 | 1.01 | 0.905 | 0.947 | 0.731 | 0.859
NCI-H520 | 1.07 | 1.19 | 0.482 | 0.852 | 0.831 | 0.677 | 0.725 | 0.917
RERF-LC-KJ | 1.05 | 0.762 | 0.468 | 0.963 | 1.06 | 0.927 | 0.466 | 0.851
A-427 | 1.03 | 1.07 | 0.962 |  | 1.2 | 1.1 | 1.11 | 0.959
NCI-H441 | 0.683 | 0.369 | 0.34 | 0.91 | 1.03 | 0.879 | 0.85 | 0.97
NCI-H1703 | 1.04 | 1.05 | 0.93 | 0.32 | 0.289 | 0.412 | 0.323 | 0.34
NCI-H1792 | 0.604 | 0.619 | 0.644 |  |  |  |  | 
Calu-6 | 0.859 | 0.891 | 0.376 | 0.843 | 0.87 | 0.857 | 0.896 | 0.891
SK-LU-1 | 0.747 | 0.642 | 0.178 | 0.845 | 0.843 | 0.97 | 0.785 | 0.85
PC-3 [JPC-3] | 0.745 | 0.807 | 0.871 | 1.08 | 1.1 | 1.12 | 1.08 | 1.16
EMC-BAC-2 | 1.16 | 1.28 | 1.27 | 0.957 | 0.966 | 1.02 | 1.09 | 1.05
LK-2 | 0.879 | 0.723 | 0.464 | 0.93 | 1.35 | 1.35 | 1.37 | 1.39
NCI-H2126 | 0.853 | 0.843 | 0.849 | 1.23 | 1.1 | 1.3 | 1.08 | 1.11
NCI-H3122 | 0.987 | 1.04 | 0.972 | 0.973 | 0.906 | 1.01 | 0.962 | 0.888
NCI-H1975 | 1.14 | 1.15 | 0.761 | 1.03 | 0.94 | 1.08 | 1 | 0.984

Cell Line | relative viability ([1]; first compound 0.1 µM) | relative viability ([1]; first compound 1 µM) | relative viability ([1]; first compound 3.162 µM) | relative viability ([2]; first compound 0.02 µM) | relative viability ([2]; first compound 0.06325 µM) | relative viability ([2]; first compound 0.2 µM) | relative viability ([2]; first compound 0.6325 µM) | relative viability ([2]; first compound 2 µM)
NCI-H1944 | 1.07 | 1.05 | 0.973 | 0.795 | 0.841 | 0.827 | 0.888 | 1.01
LU99A | 0.845 | 0.816 | 0.598 | 0.855 | 0.783 | 0.932 | 0.79 | 0.853
SW 1573 | 0.954 | 0.878 | 0.561 | 0.986 | 0.867 | 0.87 | 0.895 | 0.905
NCI-H2347 | 0.867 | 0.77 | 0.608 | 1.36 | 0.838 | 1.02 | 1.03 | 0.833
NCI-H2009 | 1.13 | 1.22 | 0.889 | 1.27 | 1.19 | 1.38 | 1.14 | 1.25
HCC-15 | 0.683 | 0.683 | 0.609 | 1.07 | 1.04 | 1.08 | 1.1 | 1.07
HCC-44 | 1 | 1.16 | 1.09 |  |  |  |  | 
COR-L23 | 0.941 | 1.08 | 0.324 | 0.982 | 0.912 | 1.13 | 1.04 | 0.973
HCC-78 | 0.752 | 0.742 | 0.652 | 0.551 | 0.565 | 0.52 | 0.577 | 0.621
NCI-H1299 | 1.07 | 1.13 | 1.1 | 1.16 | 1.12 | 1.14 | 1.04 | 1.15
NCI-H727 | 0.522 | 0.397 | 0.263 | 0.912 | 0.92 | 1.21 | 1.07 | 1.04
NCI-H2087 | 1.06 | 1.11 | 0.771 | 0.981 | 0.992 | 1.23 | 1.11 | 1.15
BEN | 0.0749 | 0.0596 | 0.0617 | 0.635 | 0.602 | 0.561 | 0.681 | 0.657
LCLC-103H |  |  |  | 0.703 | 0.71 | 0.938 | 0.754 | 0.736
EKVX | 0.883 | 1.01 | 0.87 | 0.905 | 1.05 | 0.602 | 0.77 | 0.626
LXF-289 | 0.938 | 0.986 | 0.942 | 0.973 | 0.979 | 0.967 | 0.943 | 0.968
ABC-1 |  |  |  | 1.29 | 1.15 |  | 0.988 | 1.2
NCI-H650 |  |  |  | 1.04 | 1.07 | 1.02 | 1.01 | 1.09
NCI-H1650 | 1.25 | 1.24 | 0.89 | 1.42 | 1.25 |  | 1.43 | 1.19
